Results taken from publication PMC4563141, “Reverse Engineering of Vaccine Antigens Using High Throughput Sequencing-enhanced mRNA Display” (EBioMedicine, 2015).
Peptide text beside a SMILES is read from it.

How the values were obtained:
[1] = system: mAb41 Fab; experiment: Affinity measurements by Octet (binding kinetics of mAb41 Fab to biotinylated peptides); set-up: species or system mice; conditions: Octet RED, 1:1 model fit
Protocol: Binding kinetics of mAb41 Fab to selected peptides were measured using a Fortebio Octet Red 96 instrument (Menlo Park, CA). All assays were performed in 1 × kinetic buffer (Fortebio). Biotinylated peptides were loaded onto streptavidin biosensors (Fortebio) for 100 s and quenched with biocytin. A two-fold dilution series of antibody Fab (prepared using a mouse IgG1 kit, Pierce) was used as analyte. Association was performed for 300 s and dissociation for 900 s. Binding constants were obtained by fitting sensorgrams with a 1:1 model using ForteBio Data Analysis Software.

[2] = system: mAb41; experiment: Competitive ELISA for binding of mAb41 to immobilized peptide B; set-up: species or system mice; conditions: 1 μg biotinylated pB immobilized, 12 ng mAb41, competitor peptide 0 to 0.8 μg
Protocol: Streptavidin coated 96-well ELISA plates were coated with 1 μg/well biotinylated peptide B as previously described ([Major et al., 1999]). Equal amounts of mAb (12 ng in 100 μl PBS containing 5% milk) were added to each well with increasing amounts of competitor peptide (from 0 to 0.8 μg). After 1 hr incubation at room temperature and washing, secondary antibody was added. The substrate reaction and absorbance reading were performed as described above.

In the case of `CSCC[C@H](NC(=O)[C@@H](N)CCSC)C(=O)N[C@@H](CCC(=O)O)C(=O)N[C@@H](CS)C(=O)N[C@@H](CCC(=O)O)C(=O)N[C@@H](CCCCN)C(=O)NCC(=O)N[C@@H](CCCCN)C(=O)N[C@@H](Cc1ccc(O)cc1)C(=O)N[C@H](C(=O)N[C@@H](CCC(N)=O)C(=O)NCC(=O)N[C@@H](Cc1c[nH]c2ccccc12)C(=O)N[C@@H](CC(C)C)C(=O)N[C@@H](CS)C(=O)N[C@@H](Cc1c[nH]cn1)C(=O)N[C@@H](CC(C)C)C(=O)N[C@@H](Cc1ccccc1)C(=O)N[C@@H](Cc1c[nH]c2ccccc12)C(=O)N[C@@H](CCC(=O)O)C(=O)N[C@@H](CC(=O)O)C(=O)N[C@@H](CS)C(=O)N[C@@H](CCC(N)=O)C(=O)N[C@@H](CC(=O)O)C(=O)N[C@@H](CCCNC(=N)N)C(=O)NCC(=O)N[C@@H](Cc1c[nH]c2ccccc12)C(=O)N[C@@H](CC(C)C)C(=O)N[C@@H](CCC(=O)O)C(=O)N[C@@H](CCC(N)=O)C(=O)N[C@@H](CC(C)C)C(=O)N[C@@H](CCCNC(=N)N)C(=O)N[C@@H](CC(N)=O)C(=O)N[C@@H](CO)C(=O)N[C@@H](CS)C(=O)N[C@@H](C)C(=O)O)C(C)C` [p41_1] (H-MMECEKGKYVQGWLCHLFWEDCQDRGWLEQLRNSCA-OH; N-terminus and C-terminus assumed), the “kon” value ([1]; association 300 s) is reported as 14400 M⁻¹ s⁻¹, the Kd ([1]; biotinylated peptide on streptavidin biosensor, mAb41 Fab 125 nM to 7.8 nM 2-fold series) is reported as 0.0167 µM and the “kdis” value ([1]; dissociation 900 s) is reported as 0.000241 s⁻¹. The “competition with wild type pB for binding to mAb41” value [2] was “inhibited binding of mAb41 to immobilized pB”.
